Activity calls are given as the source filed them.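 Rule for the calls: active = compounds giving half or more protection of infected cells from virus-caused growth loss, again on retest; inactive = the rest.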
System: CEM cells HIV-1 protection, formazan growth assay
Test: NCI AIDS Antiviral Assay
Conditions: for IC50: measured here: growth of uninfected CEM cells
Procedure, shortened: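 CEM (human) cells, HIV-1 infected vs uninfected, 5-point dosing, formazan growth read-out. Retest threshold 50% protection.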

Structure (SMILES)	outcome	EC50 [µM]	IC50 [µM]
CN1N=CSC12C(=O)N(c1ccccc1)C(=O)N2c1ccccc1 (stereo unspecified)	inactive		
CCOC(=O)c1c(N)nnc(-c2ccccc2)c1-c1ccccc1		> 200	129
COC(=O)c1ncn(Cc2ccccc2)c1N		> 200	> 100
COc1ccc(N2C(=O)C(C#N)=C(SC)C(C#N)C2=O)cc1 (stereo unspecified)		> 200	174
Cc1ccc(C(=O)Nc2ccc(CP(=O)(O)O)cc2)cc1NC(=O)c1cccc(N)c1		> 200	> 200
C[C@H](CCc1nc2ccccc2n1CCN(C)C)[C@H]1CC[C@H]2[C@@H]3CC[C@@H]4C[C@H](O)CC[C@]4(C)[C@H]3CC[C@]12C		1.55	4.79
O=C(CCCN1CCC2(CC1)CC(=O)N(N1CCCCCC1)C2=O)c1ccccc1		> 200	182
CCC[CH2][Sn]([CH2]CCC)=[N]S(=O)(=O)c1ccc(Cl)c(C)c1		> 0.2	0.0851
CCCCCCCCCCCCSCC12c3ccccc3C(c3ccccc31)C(C(=O)O)C2C(=O)O (stereo unspecified)		> 200	22.4
CC(C)OP(=O)(OC(C)C)C([CH2][Sn]([CH3])([CH3])[Cl])P(=O)(OC(C)C)OC(C)C		> 457	8.32
CC(C(=O)O)c1ccc2c(c1)Cc1ccccc1-2 (stereo unspecified)		> 200	> 200
COc1cc(N=Nc2ccc(S(=O)(=O)O)cc2)c(C)cc1N=Nc1cc(S(=O)(=O)O)c(NC(=O)c2ccc(N)cc2)cc1NC(C)=O		13.2	> 200
CCc1cc2c(c3c1CCC3=O)CC1(Cc3ccc(C)cc3C1)C2 (stereo unspecified)		> 200	135
O=c1cc(N=Nc2ccc(Br)cc2)[nH]c(=S)[nH]1		> 200	1.1
Cc1cc(C)n(C2=NS(=O)(=O)c3ccccc3N2C)n1		> 123	> 123
O=c1c2ccccc2oc2nccnc12	inactive		
CN=c1ssc(=S)n1C(C)C		> 200	16.2
COc1c(OC)c(C2(O)C(=O)N(C)c3ccccc32)c2c(c1C1(O)C(=O)N(C)c3ccccc31)OCO2 (stereo unspecified)		> 200	> 200
Cc1cc(N(CCC#N)CCC#N)ccc1/C=C1N=C(/C=C\c2ccccc2)OC\1=O		> 17.8	> 17.8
CC(CCc1ccccc1)NCC(O)n1c(/N=N/N(C)C)nc2c1c(=O)n(C)c(=O)n2C (stereo unspecified)		> 200	> 200
COC(=O)Cc1cc(=O)[nH]c2c1C(=O)CCC2	inactive		
S=C(N/N=C/c1cccc2ccccc12)Nc1c(Cl)cccc1Cl		> 200	102

Structure (SMILES)	outcome	EC50 [µM]	IC50 [µM]
CCCN(CCC)C(=O)Cc1c2n(c3ccccc13)Cc1ccccc1-2		> 15.1	5.89
COc1ccc(C(=O)/C=C/c2ccc(OCC#N)cc2)cc1OC		> 200	3.31
C=CCC12CC(OC)C(O)CC1(O)OC(c1cc(OC)c(OC)c(OC)c1)C2C (stereo unspecified)		> 200	> 200
COc1ccc(-c2cc(=O)c3ccc(O)cc3o2)cc1OC		> 100	24
COC1=CC(=O)C2C=C3C(CO)=CCC(O)C3(C)CC2C1=O (stereo unspecified)		> 200	3.8
CCN(CC)CC(=O)NC1c2ccc(Cl)cc2Oc2c(C)cccc21 (stereo unspecified)		> 72.4	58.9
Cc1ccc([N+](=O)[O-])cc1P(=O)(O)c1cc([N+](=O)[O-])ccc1C		> 200	> 200
Cc1cn(C2CC(n3cncn3)C(C(C)O)O2)c(=O)[nH]c1=O (stereo unspecified)		> 813	> 813
CC(=S)N/C=C(\C#N)c1nc2ccccc2s1		> 200	107
COc1cc(C(=O)N(C(=S)OCc2ccccn2)c2ccccc2)cc(OC)c1OC		> 200	74.1
O=C1CN(O)C(c2ccccc2)=c2cc(Cl)ccc2=N1		> 200	> 200
CC(C)=CCN1CC(C)C(=O)Nc2ccccc21 (stereo unspecified)		19.5	117
COc1cccc(-c2nc(-c3cnccn3)n(Cc3ccccc3)n2)c1		> 200	> 200
CC1(CO)COC(C)(C)OC1		> 1550	1410
Cc1ccc2c(c1)CSCCO2		> 105	14.8
CCOC(=O)c1ccc(-n2nc(C)cc(Cl)c2=O)cc1		> 123	23.4
CCOC(=O)c1cc(C2CCN(CC(C)CC)C2=S)c(-c2cc(C)no2)[nH]1 (stereo unspecified)		> 200	> 200
O=C1CSCc2sccc21		> 200	> 200
CC1=CC(=O)c2c(C=O)c(O)c(O)c(C(C)C)c2C1=O		> 95.5	1.91
CC(=O)N(CN1C(=O)CCC1C(=O)O)c1cccc(O)c1 (stereo unspecified)	inactive		
O=C1c2ccccc2NC(=O)C2C1C(c1ccccc1)CC2(O)c1ccccc1 (stereo unspecified)		> 200	33.1
CN(C)CCNCc1ccc(-c2cccc(-c3ccc(CNCCN(C)C)cc3)n2)cc1		> 204	2.45

Structure (SMILES)	outcome	EC50 [µM]	IC50 [µM]
O=C1NC(=O)C2C1N(Cc1ccccc1)C(=O)N2Cc1ccccc1 (stereo unspecified)		> 107	> 107
C=C1C(=O)O[C@@H]2[C@H]1CC[C@H](C)[C@@H]1CCC(=O)[C@@]21C		> 200	3.39
Fc1cccc(C=NC23CC4CC(CC(C4)C2)C3)c1		> 52.5	> 52.5
COC(=O)[C@@H]1OC(C)(c2ccccc2)O[C@H]1C(=O)OC		> 200	> 200
CC(C)CC(NC(=O)C(CSc1ccc([N+](=O)[O-])cc1)Cc1ccccc1)C(=O)Nc1ccccc1 (stereo unspecified)		> 100	> 100
CCOC(=O)/C(CCCC#N)=N/O		> 200	> 200
CCCNC1(C(N)=O)CCN(Cc2ccccc2)CC1		> 200	> 200
O=C(Nc1nnc(-c2ccccc2)s1)c1cc(=O)c2cc([N+](=O)[O-])ccc2o1		> 200	> 200
C=C1CC(COc2cc(Cl)nc(N)n2)C1		> 200	24.5
N#CC(/C=C/c1ccccc1)Nc1ccccc1 (stereo unspecified)		> 22.4	> 22.4
CC(C)=Cc1cc(C(=O)Nc2ccc(Cl)c(Cl)c2)nc(N)n1		> 741	490
COn1oc(=O)c2ccccc21		> 200	> 200
[Pt].c1ccc([PH+](CC[PH+](CC[PH+](c2ccccc2)c2ccccc2)CC[PH+](c2ccccc2)c2ccccc2)c2ccccc2)cc1		> 21.9	0.417
O=C1[C@H]2ON(c3ccccc3)C(c3ccco3)[C@H]2C(=O)N1c1ccc(Cc2ccc(N3C(=O)[C@@H]4ON(c5ccccc5)C(c5ccco5)[C@@H]4C3=O)cc2)cc1 (stereo partly specified)		> 7.08	> 7.08
CCCCCC/C=C\CCCCCCCCCc1cc(O)cc(OC)c1O		> 13.8	5.01
N/N=C1/C(=N/O)CCc2nonc21		> 200	> 200
Nc1nc2sc3ccccc3c(=O)n2n1		> 91.2	> 91.2
CCCCc1ccc(Nc2nc(Cl)c3[nH]cnc3n2)cc1		> 200	26.3
CC(C(=O)NCCNC(=O)CCCC(=O)N(C)O)C(=O)NCCNC(=O)CCCC(=O)N(C)O		> 200	> 200
O=[N+]([O-])c1ccc([N+](=O)[O-])c(Cl)c1		> 200	3.16
NC(=S)NC/C=C/Cl		> 200	> 200
